Results as given in patent publication US7863276B2, “Salts of modulators of PPAR and methods of treating metabolic disorders” (KALYPSYS, Inc, priority 2005, dated 2011).

Key:
Assay type in all cases: cell-based, murine and human
PPARα = target: T1, PPARα (UniProt Q07869); assay: PPARα GAL4 chimera transactivation assay in CV-1 cells; settings: transient transfection, luciferase reporter, 20-24 hours, read-out: PPAR alpha
T1 sequence (Q07869 1-468): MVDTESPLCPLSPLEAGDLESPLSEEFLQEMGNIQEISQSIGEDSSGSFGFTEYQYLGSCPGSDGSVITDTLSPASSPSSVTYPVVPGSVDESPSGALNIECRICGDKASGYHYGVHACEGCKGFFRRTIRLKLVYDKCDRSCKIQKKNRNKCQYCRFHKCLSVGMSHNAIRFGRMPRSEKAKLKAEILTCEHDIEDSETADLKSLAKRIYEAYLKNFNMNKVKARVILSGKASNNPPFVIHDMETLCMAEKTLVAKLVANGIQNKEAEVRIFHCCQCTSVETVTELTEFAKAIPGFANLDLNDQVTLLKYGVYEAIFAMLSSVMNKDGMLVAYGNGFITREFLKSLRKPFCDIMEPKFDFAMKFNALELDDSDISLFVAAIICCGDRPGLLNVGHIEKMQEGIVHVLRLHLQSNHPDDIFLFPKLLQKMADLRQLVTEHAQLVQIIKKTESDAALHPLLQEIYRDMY
Source text: (§1) Compounds were screened for functional potency in transient transfection assays in CV-1 cells for their ability to activate the PPAR subtypes (transactivation assay). A previously established chimeric receptor system was utilized to allow comparison of the relative transcriptional activity of the receptor subtypes on the same synthetic response element and to prevent endogenous receptor activation from complicating the interpretation of results. See, for example, Lehmann, J. M.; Moore, L. B.; Smith-Oliver, T. A; Wilkinson, W. O.; Willson, T. M.; Kliewer, S. A., An antidiabetic thiazolidinedione is a high affinity ligand for peroxisome proliferator-activated receptor […], J. Biol. Chem., 1995, 270, 12953-6. The ligand binding domains for murine and human PPARα, PPARγ, and PPARδ are each fused to the yeast transcription factor GAL4 DNA binding domain. CV-1 cells were transiently transfected with expression vectors for the respective PPAR chimera along with a reporter construct containing four or five copies of the GAL4 DNA binding site driving expression of luciferase. […] Luciferase activity was then assayed with Britelite (Perkin Elmer) following the manufacturer's protocol and measured with either the Perkin Elmer Viewlux or Molecular Devices Acquest (see, for example, Kliewer, S. A., et. al. Cell 1995, 83, 813-819). […]

PPARδ = target: T2, PPARδ (UniProt Q03181); assay: PPARδ GAL4 chimera transactivation assay in CV-1 cells; settings: transient transfection, luciferase reporter, 20-24 hours, read-out: PPAR delta
T2 sequence (Q03181 1-441): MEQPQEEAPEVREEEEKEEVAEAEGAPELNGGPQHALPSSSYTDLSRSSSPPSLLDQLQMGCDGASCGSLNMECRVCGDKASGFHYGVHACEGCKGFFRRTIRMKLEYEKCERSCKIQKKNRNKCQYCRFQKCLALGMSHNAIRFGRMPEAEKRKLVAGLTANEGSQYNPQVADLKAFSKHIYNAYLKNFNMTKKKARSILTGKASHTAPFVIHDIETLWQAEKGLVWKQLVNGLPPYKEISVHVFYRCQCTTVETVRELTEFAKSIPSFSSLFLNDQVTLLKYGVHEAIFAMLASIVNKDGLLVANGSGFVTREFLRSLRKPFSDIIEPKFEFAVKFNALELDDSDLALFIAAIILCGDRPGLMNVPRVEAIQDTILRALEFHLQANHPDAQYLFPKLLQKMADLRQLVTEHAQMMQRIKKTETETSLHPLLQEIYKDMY
Source text: as §1

PPARγ = target: T3, PPARγ (UniProt P37231); assay: PPARγ GAL4 chimera transactivation assay in CV-1 cells; settings: transient transfection, luciferase reporter, 20-24 hours, read-out: PPAR gamma
T3 sequence (P37231 1-505): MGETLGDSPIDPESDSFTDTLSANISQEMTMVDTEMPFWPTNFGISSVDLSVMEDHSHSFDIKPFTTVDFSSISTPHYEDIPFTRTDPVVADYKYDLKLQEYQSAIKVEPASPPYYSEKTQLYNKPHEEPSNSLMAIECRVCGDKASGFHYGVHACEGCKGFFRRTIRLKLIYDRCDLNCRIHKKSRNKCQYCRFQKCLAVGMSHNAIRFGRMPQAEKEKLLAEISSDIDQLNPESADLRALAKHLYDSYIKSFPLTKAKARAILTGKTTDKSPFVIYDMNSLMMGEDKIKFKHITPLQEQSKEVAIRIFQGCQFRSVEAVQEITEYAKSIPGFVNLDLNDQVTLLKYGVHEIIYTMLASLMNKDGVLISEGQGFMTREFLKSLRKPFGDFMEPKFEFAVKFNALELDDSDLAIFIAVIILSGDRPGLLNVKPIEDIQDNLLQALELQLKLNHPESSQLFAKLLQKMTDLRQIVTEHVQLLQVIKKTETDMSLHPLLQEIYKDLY
Source text: as §1

| EC50 (PPARα) [µM] | EC50 (PPARδ) [µM] | EC50 (PPARγ) [µM] | SMILES |
| --- | --- | --- | --- |
| > 100 | < 5 | > 100 | C[C@@H]1CN(c2ccc(OC(F)(F)F)cc2)C[C@H](C)N1S(=O)(=O)c1cccc2c1C[C@@H](C(=O)O)C2 [Compound 1, (S)-4-[cis-2,6-Dimethyl-4-(4-trifluoromethoxy-phenyl)-piperazine-1-sulfonyl]-indan-2-carboxylic acid] |
| > 100 | < 5 | 5 to 100 | C[C@@H]1CN(Cc2ccc(OC(F)(F)F)cc2)C[C@H](C)N1S(=O)(=O)c1cccc2c1C[C@@H](C(=O)O)C2 [Compound 2, (S)-4-[cis-2,6-Dimethyl-4-(4-trifluoromethoxy-benzyl)-piperazine-1-sulfonyl]-indan-2-carboxylic acid] |
